Paper PMC6855250 (Nature, 2019)

Biological target: SidJ (Legionella pneumophila, UniProt Q5ZTK6)
Assay: biochemical

Sequence of SidJ (Q5ZTK6 whole entry, looked up): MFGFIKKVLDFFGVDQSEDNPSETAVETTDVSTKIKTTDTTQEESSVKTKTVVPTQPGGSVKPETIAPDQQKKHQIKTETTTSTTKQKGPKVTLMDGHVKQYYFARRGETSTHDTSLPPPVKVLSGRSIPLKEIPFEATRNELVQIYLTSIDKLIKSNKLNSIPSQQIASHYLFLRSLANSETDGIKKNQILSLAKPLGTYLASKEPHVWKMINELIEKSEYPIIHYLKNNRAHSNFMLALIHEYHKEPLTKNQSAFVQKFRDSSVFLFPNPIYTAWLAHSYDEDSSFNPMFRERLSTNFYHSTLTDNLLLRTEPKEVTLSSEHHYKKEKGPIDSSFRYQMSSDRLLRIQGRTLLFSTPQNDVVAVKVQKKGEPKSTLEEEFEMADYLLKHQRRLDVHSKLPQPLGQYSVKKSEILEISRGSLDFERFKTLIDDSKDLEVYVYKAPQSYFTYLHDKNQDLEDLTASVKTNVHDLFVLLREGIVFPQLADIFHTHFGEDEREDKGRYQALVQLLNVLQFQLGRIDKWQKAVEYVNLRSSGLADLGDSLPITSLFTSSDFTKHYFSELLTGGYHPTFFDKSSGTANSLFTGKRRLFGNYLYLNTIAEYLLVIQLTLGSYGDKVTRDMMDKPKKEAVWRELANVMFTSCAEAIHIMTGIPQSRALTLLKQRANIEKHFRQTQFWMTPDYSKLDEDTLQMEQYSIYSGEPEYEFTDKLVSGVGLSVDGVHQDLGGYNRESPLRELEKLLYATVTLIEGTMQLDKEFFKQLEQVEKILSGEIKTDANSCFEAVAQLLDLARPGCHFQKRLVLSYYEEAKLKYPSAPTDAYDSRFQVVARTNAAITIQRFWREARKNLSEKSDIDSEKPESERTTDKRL

Nc1ncnc2c1ncn2[C@@H]1O[C@H](COP(=O)(O)OP(=O)(O)OP(=O)(O)O)[C@@H](O)[C@H]1O [ATP]
Kd: 1.45 µM
